Experimental data taken from patent US10967031B2, “Synergistic herbal compositions with prebiotic properties for treatment of skin infections, allergies and inflammation” (priority 2010, dated 2021).
Like-named read-outs stand apart in the source and are kept apart here.

Test system: IL-13 release from KU812 cells
Assay: IL-13 release assay in KU812 cells (PMA + ionomycin, IL-13 ELISA)
Format: cell-based, human

| SMILES | inhibition at 10 µM (Homo sapiens, positive control 10 μM, read-out: Percentages of IL-13 inhibition) | inhibition at 1 µM (Homo sapiens, 1 μM, read-out: Percentages of IL-13 inhibition) | inhibition at 10 µM (Homo sapiens, 10 μM (Fistein), read-out: Percentages of IL-13 inhibition) | inhibition at 100 µM (Homo sapiens, 100 μM, read-out: Percentages of IL-13 inhibition) | IL-13 release / inhibition, in words (first screening (Examples 1 and 3)) |
| --- | --- | --- | --- | --- | --- |
| C[C@@H]1C[C@H]2[C@@H]3CCC4=CC(=O)C=C[C@]4(C)[C@@]3(F)[C@@H](O)C[C@]2(C)[C@@]1(O)C(=O)CO [Dexamethasone] | 52% |  |  |  |  |
| O=c1c(O)c(-c2ccc(O)c(O)c2)oc2cc(O)ccc12 [Fistein, Fisetin] |  | 26.5% | 17.3% | 35.7% | the inhibition percentages were relatively low |
